Laboratory results taken from the ASAP Discovery antiviral challenge data (2025).
≈ marks a conversion by molar mass, not a printed value. Where “and” joins values, the source holds several entries; their conditions need not be identical. Identical values can stand only once.

How the values were obtained:
[1] = mdck_mdr1
[2] = not given; remark: listed apart in the source
[3] = human; liver_microsomes

| SMILES | logD | Papp [1] | solubility kinetic [2] | microsomal CLint [3] |
| --- | --- | --- | --- | --- |
| CC(C)[C@H](Nc1ncnc2[nH]cc(C(=O)NC3CC3)c12)c1ccc2c(c1)S(=O)(=O)CCC2 (single isomer, unassigned) | 3.2 and 3 | 2.97 ×10⁻⁶ cm/s and 1.27 ×10⁻⁶ cm/s |  |  |
| O=C(NCCCF)[C@H](Nc1ccc2c(c1)CNC2)c1cc(Cl)cc(C2CC2)c1 (racemic) | 1.2 | 0.7 ×10⁻⁶ cm/s | 394 µM (≈ 158 µg/mL) |  |
| CC(C)[C@H](Nc1ncnc2[nH]c(-c3cnn(CC(=O)N(C)C)c3)cc12)c1ccc2c(c1)S(=O)(=O)CCC2 (single isomer, unassigned) | 2.2 | 1.17 ×10⁻⁶ cm/s and 0.555 ×10⁻⁶ cm/s | 361 µM and 256 µM |  |
| CNC(=O)[C@H](Nc1ccc2c(c1)CNC2)c1cc(Cl)cc(C2CC2)c1 (racemic) | 0.9 | 1.5 ×10⁻⁶ cm/s | 358 µM (≈ 127 µg/mL) |  |
| N#CCCNC(=O)[C@H](Nc1ccc2c(c1)CNC2)c1cc(Cl)cc(C2CC2)c1 (racemic) | 0.6 | 0.5 ×10⁻⁶ cm/s | 374 µM (≈ 148 µg/mL) |  |
| O=C(Nc1cc(Cl)cc(C(=O)Nc2n[nH]c3c2CNC3)c1)OCc1ccccc1 |  | 1.44 ×10⁻⁶ cm/s | 26 µM (≈ 10.7 µg/mL) |  |
| NCc1cccc(NC(=O)C[C@H](NC(=O)OCc2ccccc2)c2ccc(OCc3ccccc3)c(Br)c2)c1 (racemic) |  | 0.783 ×10⁻⁶ cm/s | 21 µM (≈ 12.4 µg/mL) | 12.4 µL/min/mg |
| NCc1cccc([C@H]2C[C@@H]2c2cc(Cl)cc(NC(=O)OCc3ccccc3)c2)c1 (racemic) |  | 1.66 ×10⁻⁶ cm/s | 50 µM (≈ 20.3 µg/mL) | 11.4 µL/min/mg |
| O=C(O)Cn1ncc2cc(-c3cc(Cl)cc(NC(=O)OCc4ccccc4)c3)ccc21 | 2.6 | 5.12 ×10⁻⁶ cm/s | 131 µM (≈ 57.1 µg/mL) |  |
| CC(C)[C@H](Nc1ncnc2[nH]c(C(=O)N[C@@H]3CCN(C)C3)cc12)c1ccc2c(c1)S(=O)(=O)CCC2 (single isomer, unassigned) | 1.4 and 1.6 |  | 366 µM and 392 µM |  |
| O=C(Nc1cc(Cl)cc([C@H]2CN(Cc3ccccc3)C[C@@H]2c2cccc(-c3nn[nH]n3)c2)c1)OCc1ccccc1 (racemic) | 4.1 | 0.2 ×10⁻⁶ cm/s |  | 46.3 µL/min/mg |
| CC(C)[C@H](Nc1ncnc2[nH]c(-c3cnn(C)c3C#N)cc12)c1ccc2c(n1)OCCO2 (single isomer, unassigned) | 3.7 and 3.9 | 13.7 ×10⁻⁶ cm/s and 14.6 ×10⁻⁶ cm/s | 53 µM and 50 µM |  |
| COc1cc(C#N)cc([C@H](Nc2ccc3c(c2)CNC3)C(=O)NCC(F)F)c1 (racemic) | -0.4 | 0.5 ×10⁻⁶ cm/s | 381 µM (≈ 147 µg/mL) |  |
| COc1cc(Cl)cc([C@H](Nc2ccc3c(c2)CNC3)C(=O)NCC(F)F)c1 (racemic) | 0.5 | 0.7 ×10⁻⁶ cm/s |  |  |
| O=C(NCC(F)F)[C@H](Nc1ccc2c(c1)CNC2)c1cc(Cl)cc2c1CCC2 (racemic) | 1.2 | 0.9 ×10⁻⁶ cm/s |  |  |
| COCc1cc(Cl)cc([C@H](Nc2ccc3c(c2)CNC3)C(=O)NCC(F)F)c1 (racemic) | 0.2 | 1.7 ×10⁻⁶ cm/s | 192 µM (≈ 78.7 µg/mL) |  |
| OCC#C[C@H](Nc1ccc2c(c1)CNC2)c1cc(Cl)cc2[nH]ncc12 (racemic) | 0.5 | 0.592 ×10⁻⁶ cm/s | 135 µM (≈ 47.6 µg/mL) |  |
| CO[C@H]1C[C@H](n2ncc3c(C(=O)Nc4ccc5c(c4)CNC5)cc(Cl)cc32)C1 | 1.5 | 1.6 ×10⁻⁶ cm/s | 340 µM (≈ 135 µg/mL) |  |
| C=CC[C@H](Nc1ccc(-c2nn[nH]n2)cc1)c1cc(Cl)cc(NC(=O)OCc2ccccc2)c1 (racemic) | 3.9 | 2.6 ×10⁻⁶ cm/s |  | 10.1 µL/min/mg |
| O=C(NCC(F)F)[C@H](Nc1ccc2c(c1)CNC2)c1cc(Cl)cc(C2CC2)c1 (single isomer, unassigned) | 1.3 and 1.4 | 1.3 ×10⁻⁶ cm/s and 1.9 ×10⁻⁶ cm/s | 326 µM and 139 µM |  |
| CNC(=O)[C@H](Nc1ccc(-c2nnn[nH]2)cc1)c1cc(Cl)cc(C2CC2)c1 (racemic) | 1.1 | 1.6 ×10⁻⁶ cm/s |  |  |

| SMILES | logD | Papp [1] | solubility kinetic [2] | microsomal CLint [3] |
| --- | --- | --- | --- | --- |
| Cc1cc([C@H](Nc2ccc3c(c2)CNC3)C(=O)NCC(F)F)cc(C(F)(F)F)c1 (racemic) | 1 | 0.7 ×10⁻⁶ cm/s |  |  |
| Clc1ccc2[nH]cc(Cc3ccc(-c4nn[nH]n4)cc3)c2c1 | 2.1 | 8.4 ×10⁻⁶ cm/s |  |  |
| O=C1Cc2c(cc(F)cc2C(=O)Nc2ccc3c(c2)CNC3)N1 | -0.2 | 2.9 ×10⁻⁶ cm/s | 368 µM (≈ 115 µg/mL) |  |
| NCc1cc(C(=O)O)cc([C@@H]2C[C@H]2c2cc(Cl)cc(NC(=O)OCc3ccccc3)c2)c1 (racemic) | 2.7 | 0.819 ×10⁻⁶ cm/s | 52 µM (≈ 23.4 µg/mL) |  |
| O=C1Cc2c(cccc2C(=O)Nc2ccc3c(c2)CNC3)N1 | 0.3 | 0.924 ×10⁻⁶ cm/s | 152 µM (≈ 44.6 µg/mL) |  |
| CC(C)CNC(=O)c1cc(Cl)c(F)cc1NS(=O)(=O)c1ccc(Oc2ccccc2Cl)cc1 |  | 2.39 ×10⁻⁶ cm/s | 4 µM (≈ 2.05 µg/mL) | 198 µL/min/mg |
| O=C(O)COc1cccc(NC(=O)c2cc(Cl)cc(NC(=O)OCc3ccccc3)c2)c1 | 1.8 | 1.1 ×10⁻⁶ cm/s | 360 µM (≈ 164 µg/mL) |  |
| NCc1cc(Cl)cc(C(=O)Nc2ccc3c(c2)CNC3)c1 | 2 |  |  |  |
| O=C(Nc1cc(Cl)cc(C(=O)Nc2cccc(-c3nnn[nH]3)c2)c1)OCc1ccccc1 | 3.7 | 5.06 ×10⁻⁶ cm/s | 65 µM (≈ 29.2 µg/mL) |  |
| C[C@H]1O[C@@H](O[C@H]2[C@@H](O)C[C@H](O[C@H]3[C@@H](O)C[C@H](O[C@H]4CC[C@@]5(C)[C@H](CC[C@@H]6[C@@H]5C[C@@H](O)[C@]5(C)[C@@H](C7=CC(=O)OC7)CC[C@]65O)C4)O[C@@H]3C)O[C@@H]2C)C[C@H](O)[C@@H]1O |  | 0.6 ×10⁻⁶ cm/s |  |  |
| Cc1ccc(NC(=O)c2cc(Cl)cc(NC(=O)OCc3ccccc3)c2)cc1CN |  | 0.0873 ×10⁻⁶ cm/s |  |  |
| CNC(=O)[C@H](Nc1cc(CN)cc(-c2nn[nH]n2)c1)c1cc(Cl)cc(C2CC2)c1 (racemic) | 1.5 | 0.302 ×10⁻⁶ cm/s | 352 µM (≈ 145 µg/mL) |  |
| CC(C)n1cc2c(C(=O)Nc3ccc4c(c3)CNC4)cc(Cl)cc2n1 | 1.6 | 3.4 ×10⁻⁶ cm/s | 181 µM (≈ 64.2 µg/mL) |  |
| O=C(NCC(F)F)[C@H](Nc1ccc2c(c1)CNC2)c1cc(Br)cc2nc[nH]c12 (racemic) | 0.4 | 0.5 ×10⁻⁶ cm/s |  |  |
| C=C[C@H]1CN2CC[C@H]1C[C@@H]2[C@@H](O)c1ccnc2ccc(OC)cc12 |  | 13.9 ×10⁻⁶ cm/s |  |  |
| O=C(Nc1ccc2c(c1)CNC2)c1cc(Cl)cc2c1CCC2 | 1.8 | 2.57 ×10⁻⁶ cm/s | 335 µM (≈ 105 µg/mL) |  |
| O=C(Nc1cc(Cl)cc(C(=O)Nc2cccc(C3CCNCC3)c2)c1)OCc1ccccc1 |  | 1.8 ×10⁻⁶ cm/s | 126 µM (≈ 58.5 µg/mL) |  |
| c1ccc2c(CN3CCC(c4c[nH]c5cccnc45)CC3)c[nH]c2c1 |  | 4.6 ×10⁻⁶ cm/s |  | 16 µL/min/mg |
| NCc1cccc(NC(=O)[C@H](NC(=O)OCc2ccccc2)C2CCCCC2)c1 (racemic) | 2 | 1.58 ×10⁻⁶ cm/s |  | 5.29 µL/min/mg |
| NCc1cccc(NC(=O)[C@H](NC(=O)OCc2ccccc2)C(C2CCC2)C2CCC2)c1 (racemic) | 2.5 | 1.6 ×10⁻⁶ cm/s |  | 12.6 µL/min/mg |
| Cc1nccn1C[C@H]1CCc2c(c3ccccc3n2C)C1=O (racemic) |  |  | 127 µM (≈ 37.3 µg/mL) |  |

| SMILES | logD | Papp [1] | solubility kinetic [2] | microsomal CLint [3] |
| --- | --- | --- | --- | --- |
| CC(C)NC(=O)[C@H](Nc1ccc2c(c1)CNC2)c1cc(Cl)cc2[nH]ncc12 (racemic) | 0.5 | 0.963 ×10⁻⁶ cm/s | 311 µM (≈ 119 µg/mL) |  |
| O=C(NCC(F)(F)F)c1cc(Cl)c(F)cc1NS(=O)(=O)c1ccc(Oc2ccccc2Cl)cc1 |  | 2.4 ×10⁻⁶ cm/s | 14 µM (≈ 7.52 µg/mL) | 70 µL/min/mg |
| CNC(=O)[C@H](Nc1ccc2c(c1)CNC2)c1cc(Cl)cc2[nH]c(-c3ccccc3)nc12 (racemic) | 1.8 | 1.02 ×10⁻⁶ cm/s | 178 µM (≈ 76.9 µg/mL) |  |
| O=C(Nc1cc(Cl)cc(-c2ccc3[nH]c(C(=O)O)cc3c2)c1)OCc1ccccc1 | 3.7 | 0.61 ×10⁻⁶ cm/s | 356 µM (≈ 150 µg/mL) |  |
| O=C(Nc1cc(Cl)cc([C@H](Nc2cccc(-c3nn[nH]n3)c2)C(=O)NCc2ccccc2)c1)OCc1ccccc1 (racemic) | 3.7 | 0.6 ×10⁻⁶ cm/s |  |  |
| O=C(NCC(F)F)[C@H](Nc1cc2c(cc1Br)CNC2)c1cc(Cl)cc(C2CC2)c1 (racemic) | 2.9 | 0.2 ×10⁻⁶ cm/s | 333 µM (≈ 161 µg/mL) |  |
| CC(C)c1nc2c(C(=O)Nc3cccc(CN)c3)cccc2[nH]1 | 1.9 | 3.84 ×10⁻⁶ cm/s | 316 µM (≈ 97.4 µg/mL) |  |
| CCCCNC(=O)[C@H](Nc1ccc2c(c1)CNC2)c1cc(Cl)cc(C2CC2)c1 (racemic) | 2.3 | 0.7 ×10⁻⁶ cm/s | 379 µM (≈ 151 µg/mL) |  |
| NCc1cccc(NC(=O)c2cccn3cc(CN4CCCC4)nc23)c1 | 0.2 | 5.25 ×10⁻⁶ cm/s | 332 µM (≈ 116 µg/mL) |  |
| Cn1ncc2c(C(=O)Nc3ccc4c(c3)CNC4)cc(Br)cc21 | 1 | 4.66 ×10⁻⁶ cm/s | 392 µM (≈ 146 µg/mL) |  |
| O=C(NCC(F)F)[C@H](Nc1cnc2c(c1)CNC2)c1cc(Cl)cc(C2CC2)c1 (racemic) | 1.5 | 0.8 ×10⁻⁶ cm/s | 362 µM (≈ 147 µg/mL) |  |
| O=C(NCC(F)F)[C@H](Nc1ccc2c(c1)CNC2)c1cc(Cl)cc2ccoc12 (racemic) | 0.6 | 2.1 ×10⁻⁶ cm/s | 187 µM (≈ 75.9 µg/mL) |  |
| O=C1Cc2cc(C(=O)Nc3ccc4c(c3)CNC4)ccc2N1 |  | 0.873 ×10⁻⁶ cm/s | 136 µM (≈ 39.9 µg/mL) |  |
| CNC(=O)[C@H](Nc1cccc(-c2nn[nH]n2)c1)c1cc(Cl)cc2[nH]ncc12 (racemic) | 0.3 | 0.863 ×10⁻⁶ cm/s | 347 µM (≈ 133 µg/mL) |  |
| CNC(=O)[C@H](Nc1cc(CN)cc(C(=O)O)c1)c1cc(Cl)cc(C2CC2)c1 (racemic) | 0 | 0.94 ×10⁻⁶ cm/s | 335 µM (≈ 130 µg/mL) |  |
| O=C(NCC(F)F)[C@H](Nc1ccc2c(c1)CNC2)c1cc(Cl)cc(C2CC2)c1 (racemic) | 1.6 | 1.55 ×10⁻⁶ cm/s | 367 µM (≈ 149 µg/mL) |  |
| CCc1cc(C(=O)Nc2cccc(CN)c2)sc1-c1ccc(Cl)cc1 | 4.3 | 0.995 ×10⁻⁶ cm/s | 7 µM (≈ 2.6 µg/mL) |  |
| NCc1cccc(NC(=O)c2cc(Cl)cc(NC(=O)OCc3ccccc3)c2)c1 | 2.7 | 2.11 ×10⁻⁶ cm/s | 89 µM (≈ 36.5 µg/mL) |  |
| C=CC[C@H]1NCc2cc(NC(=O)c3cc(F)cc4[nH]ncc34)ccc21 (racemic) | 1.7 | 3.86 ×10⁻⁶ cm/s | 356 µM (≈ 120 µg/mL) |  |
| Cc1c(C(=O)Nc2cc([C@H]3CCOC3)ccn2)cc(C2CC2)n1C (racemic) | 3 | 27.2 ×10⁻⁶ cm/s |  | 57.7 µL/min/mg |
